According to patent publication US20050009057A1, “Assay for detecting the presence of processing inhibitory antibodies against the Apical Membrane Antigen-1 of Plasmodium falciparum in biological samples” (priority 2003, published 2005):
Like-named read-outs stand apart in the source and are kept apart here.

What was measured:
[1] = system: PfAMA-1 processing on merozoites; assay: AMA-1 processing assay / processing inhibition assay (PIA), western blot; type: cell-based, P. falciparum clone 3D7; settings: for accumulation of PfAMA-1 66: FIG. 6A, 6B; for formation of trapped PfAMA-1 52 and PfAMA-1 48+44: with trapping antibodies (1:2500 anti-AMA-1 sera pool)
Description: AMA-1 processing assay, or processing inhibition assay (PIA). P. falciparum clone 3D7 cultures were prepared as described previously (Haynes and Moch, 2002, Methods Mol. Med. 72, 489-497), culture media included 10% heat inactivated normal human serum in bicarbonate-containing RPMI 1640 containing final 0.42 mM Ca^+2 and 0.40 mM Mg^+2. Fifteen microliters of heat inactivated rabbit serum (dialyzed against RPMI 1640 or used directly after heat inactivation) or purified IgG or Fab fragments was mixed with 135 μl of synchronized (Haynes and Moch, 2002, supra), Percoll-alanine purified (Kanaani and Ginsburg, 1989, J. Biol. Chem. 264, 3194-3199), mid-stage (˜8 nuclei), >90% pure schizonts (1×10^7 per ml) in a 48 well culture plate. PBS was used as a diluent if necessary. The plate was placed in a plastic bag, gassed with 5% O2-5% CO2, heatsealed, and incubated at 37° C. for ˜6 h (Haynes et al., 2002, Methods Mol. Med. 72, 535-554). Aliquots from a control culture flask were taken to monitor the percent rupture of schizonts by hemocytometer. After ˜90% schizonts had ruptured, the contents of each well were transferred to a microfuge tube and centrifuged at 10,000× g for 5 min. The supernatant was aspirated and the resulting parasite pellet was washed with 0.5 ml chilled PBS and centrifuged as before. The supernatant was discarded and 150 μl of 1× NuPAGE sample buffer (Invitrogen) was added to the tubes, samples were frozen at −30° C. until analyzed. Soluble forms of AMA-1 were immuno-precipitated from the processing assay culture supernatants or from culture supernatant of routinely maintained parasites using MagnaBind Goat anti-Rabbit IgG coated Magnetic Beads (Pierce). Two types of western blots have been used to detect AMA-1 fragments. First set of westerns in FIGS. 1 to 6 have been developed using biotinylated polyclonal IgG against recombinant AMA-1. A second set of western blots, FIG. 6 onwards, has been developed using two biotinylated primary antibodies, mAb 28G2dc1 (1:1000) and polyclonal anti-AMA-1 IgG (1:1000) used simultaneously in order to immunostain all the AMA-1 specific fragments on the blot.
(§1) Protease inhibitors. Protease inhibitors were tested for their effect on AMA-1 processing. All inhibitors were from Sigma Chemicals. PMSF, pepstatin and TPCK were dissolved in 100% ethanol. Antipain, leupeptin, and 1,10-phenanthroline stocks were made in water. EDTA and EGTA stocks were made in PBS (pH adjusted to 7.2), TLCK was prepared in 1 mM HCl, E64 and chymostatin were prepared in DMSO. All stocks were at 100× concentration. 1.5 μl of the protease inhibitor or its respective solvent control was added to 15 μl PBS and then 135 μl of (1×10^7/ml) Percoll purified mid-stage schizonts were added. The processing assay was carried out as described above. Parallel assay with protease inhibitors was carried out in two similarly prepared plates to which RBC were also added to a final 4% hematocrit. Parasites in the first plate were allowed to invade in suspension at 37° C. and thin smears were prepared after the rupture cycle for giemsa staining and examination for the presence of Protease inhibitor Clusters of Merozoites (PCM) (Lyon and Haynes, 1986, J. Immunol. 136, 2245-2251). In the second plate parasites (135 μl of 5×10^6/ml schizonts+RBC at 4% hematocrit) were incubated overnight and ring forms were quantitated by flow cytometry as a measure of parasite invasion (Haynes et al., 2002, supra).
PAGE and Western blotting. Samples were briefly sonicated with a microtip sonicator, heated at 80° C. for 2 min, spun down and 16 μl was applied per well to a precast 4-12% gradient polyacrylamide gel (NuPAGE Bis-Tris; Invitrogen). Samples were run under non-reduced conditions unless specified. DTT at 50 mM was added to samples resolved under reduced conditions. Proteins from the gel were electrophoretically transferred to nitrocellulose membrane and blocked with 5% BSA in PBS containing 0.05% Tween-20 overnight at 4° C. […]

[2] = system: P. falciparum merozoite invasion of RBC; assay: microbe, parasite or virus in culture; type: cell-based, Plasmodium falciparum; settings: for inhibition of RBC invasion: 1 mM
Description: as §1

P. falciparum schizonts = assay: Giemsa stained thin smears after rupture cycle (schizont maturation, PCM); type: cell-based, Plasmodium falciparum; settings: for Protease inhibitor Clusters of Merozoites (PCM) on giemsa stained slides / schizont maturation / development on giemsa stained thin smears: inhibitor concentrations as in FIG. 6A
Description: as §1

[3] = EDTA, EGTA 1 mM (2-0.25 mM in dose response)

SMILES	formation of trapped PfAMA-1 52 and PfAMA-1 48+44 [1]	Protease inhibitor Clusters of Merozoites (PCM) on giemsa stained slides (P. falciparum schizonts)	schizont maturation / development on giemsa stained thin smears (P. falciparum schizonts)	also measured
CC(C)C[C@H](NC(=O)[C@@H](NC(=O)N[C@@H](Cc1ccccc1)C(=O)O)[C@@H]1CCN=C(N)N1)C(=O)N[C@H](C=O)Cc1ccccc1 [chymostatin]	formation of both PfAMA-152 and PfAMA-148+44 were inhibited	PCM's were observed	did not block schizont development	accumulation of PfAMA-1 66 ([1]; chymostatin 100-12.5 μM): found to accumulate; inhibition at 100 µM ([2]; Plasmodium falciparum, read-out: inhibition of merozoite invasion): > 90%
CC(C)C[C@H](NC(=O)[C@H]1O[C@@H]1C(=O)O)C(=O)NCCCCN=C(N)N [E64]	–	PCM's were observed	–	–
O=C(O)CN(CCOCCOCCN(CC(=O)O)CC(=O)O)CC(=O)O [EGTA]	inhibited the formation of only PfAMA-148+44	–	–	accumulation of PfAMA-1 66 [1, 3]: caused accumulation of PfAMA-166; inhibition of RBC invasion [2]: ~20%; schizont rupture (P. falciparum schizonts; 1 mM): did not affect schizont rupture
CC(=O)N[C@@H](CC(C)C)C(=O)N[C@@H](CC(C)C)C(=O)N[C@H](C=O)CCCNC(=N)N [leupeptin]	–	PCM's were observed	–	–
O=C(O)CN(CCN(CC(=O)O)CC(=O)O)CC(=O)O [EDTA]	inhibited the formation of only PfAMA-148+44	–	–	accumulation of PfAMA-1 66 [1, 3]: caused accumulation of PfAMA-166; inhibition of RBC invasion [2]: ~40%; schizont rupture (P. falciparum schizonts): did not affect schizont rupture
Cc1ccc(S(=O)(=O)N[C@@H](Cc2ccccc2)C(=O)CCl)cc1 [TPCK]	–	–	interrupted schizont maturation	–
O=S(=O)(F)Cc1ccccc1 [PMSF]	–	–	interrupted schizont maturation	–
Cc1ccc(S(=O)(=O)N[C@@H](CCCCN)C(=O)CCl)cc1 [TLCK]	–	–	interrupted schizont maturation	–
c1cnc2c(c1)ccc1cccnc12 [1,10-phenanthroline]	–	–	interrupted schizont maturation	–
